# Data taken from US20140314791A1, “METHODS OF TREATING CANCER” (DANA-FARBER CANCER INSTITUTE, INC., priority 2012, published 2014).
# Tests used:
# [1] = tested on: Lkb1-null cells; experiment: IdU pulse-labeling after Dtymk knockdown, Lkb1-null; assay type: cell-based, mouse; details: for proportion of cells labeled with IdU: mean
# Procedure: (E) Lkb1-wt and Lkb1-null cells in 6-well plates were transduced with shDtymk-1 or shGFP. Two sets of the cells were plated into multiple chamber slides: one was 2 days and the other was 3 days post transduction. After overnight culturing, the cells were labeled with 100 μM IdU for 20 min then fixed for indirect immunofluorescence staining with anti-BrdU. The data represent mean±SD for 200˜300 cells. Representative merged images of BrdU (red) and DAPI (blue) in the indicated cells are shown (F).
# The lower expression of DTYMK in Lkb1-null cells causes the cells to be in jeopardy of DNA damage. To investigate how further knockdown of Dtymk and the consequent decrease in the dTTP pool could affect DNA metabolism, IdU pulse-labeling in Lkb1-wt and Lkb1-null cells was performed 2.5 and 3.5 days post-transduction with shDtymk-1. […] The representative images of Lkb1-wt and Lkb1-null cells co-stained for IdU and DAPI are shown (FIG. 5F). In addition, an overall lower proportion of labeled Lkb1-null than Lkb1-wt cells (43.1% vs. 57.7%) was observed, which may be related to the lower dNTP levels in Lkb1-null cells.
# [2] = tested on: dTMP and dTDP levels in Lkb1-wt 634 and Lkb1-null t4 cells; experiment: Metabolite analysis of dTMP and dTDP after Dtymk knockdown; assay type: cell-based, mouse; details: 3 days
# Procedure: (A) Graph of dTMP and dTDP levels in Lkb1-wt 634, Lkb1-null t4, and human LKB1-deficient NSCLC A549 cells transduced with the indicated shRNA for 3 days. The data represent mean±SD for 6 replicates.
# Cells were plated into 6-well plates in RPMI 1640/10% dialyzed FBS/1% pen/strep and medium was changed daily. When the cells reached 80% confluence, they were washed 3 times with warm washing buffer (75 mM ammonium carbonate, pH7.4), and plates were then immediately placed on dry ice. 500 μl of extraction buffer (80% methanol, −80° C.) was added to each well and the plates were kept on dry ice for 15 min. The supernatants were collected into 1.5 ml eppendorf tubes, and another 500 μl of cold extraction buffer was added to each well. After 15 min incubation on dry ice, the supernatant and the cells were collected and pooled with the previously collected supernatant. The tubes were spun at 3750 rpm/4° C. for 30 min, and then supernatants were transferred into fresh tubes and saved at −80° C. All reactions were performed with 5 replicates.
# Prior to mass spectrometer injection, dried extracts were reconstituted in LCMS grade water. Non-targeted, flow-injection time-of-flight mass spectrometry was performed as described (Fuhrer et al., 2011). […] Mass spectra were recorded from m/z 50 to 1000 with a frequency of 1.4 spectra/s for 0.48 min using the highest resolving power (4 GHz HiRes). […]
substance,measurement,setting,value
shDtymk-1: shRNA hairpin CAAGCTTCTGAATTCCTACTT targeting Mouse Dtymk,proportion of cells labeled with IdU,[1]; day 2.5 post infection,17.2%
same,proportion of cells labeled with IdU,[1]; day 3.5 post infection,5.8%
same,drop of proportion of IdU-labeled cells,[1]; in 3.5 days,86.5%
same,dTDP level,[2],moderate decrease
same,dTMP level,[2],significant increase
